Columns and labels:
Type in all cases: cell-based, mouse
[1] = system: Hedgehog Signaling Pathway; experiment: SAG-induced differentiation of C3H10T1/2 cells into osteoblastic cells, intracellular alkaline phosphatase activity; settings: Mus musculus, C3H 10T1/2, 120 h, 1 μM SAG, 5 days, alkaline phosphatase activity (OD405), read-out: IC50 values of compounds that inhibit Hh pathway
How it was run: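 Mouse C3H10T1/2 cells were induced with SAG and exposed to compound (10 μM to 1 nM) for 5 days at 37 °C. Cells were lysed in 0.2% Triton, and alkaline phosphatase activity was read as OD405 over 30 min at 37 °C in pH 9.8 substrate buffer. IC50 came from a non-linear fit of background-subtracted OD405 against log concentration.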

[2] = system: Hedgehog Signaling Pathway; experiment: SHH-induced differentiation of C3H10T1/2 cells into osteoblastic cells, intracellular alkaline phosphatase activity; settings: Mus musculus, C3H 10T1/2, 120 h, 10 nM SHH-N, 5 days, alkaline phosphatase activity (OD405), read-out: IC50 values of compounds that inhibit Hh pathway
How it was run: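 Hedgehog pathway inhibition was taken as loss of SHH-driven osteoblastic differentiation. Test compound (10 nM–10 μM) plus SHH-N (10 nM) was applied to C3H10T1/2 cells for 5 days, then lysate phosphatase turnover was measured as the 30-min OD405 change at 37 °C. IC50 was fitted from activity versus log dose.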

[3] = system: Hedgehog Signaling Pathway; experiment: Gli-Luc reporter gene cell assay in C3H10T1/2/Gli-Luc cells stimulated with Shh; settings: Mus musculus, C3H 10T1/2, 24 h, 30 nM Shh, luciferase activity (RLU), read-out: IC50 values of compounds that inhibit Hh pathway
Source text: The Application of Reporter Gene Cell Assay for the Determination of the Inhibitory Activity of N-(3-(1H-benzo[d]imidazol-2-yl)-4-chlorophenyl)-2-methyl-4-((2S,6R)-2,6-dimethylmorpholino) benzamide and Analogs on Hedgehog Signaling Pathway
The binding of Sonic hedgehog (Shh) to its receptor Patched 1 initiates numerous intracellular signal transmission, and leads to the nuclear translocation of Gli and the elevated transcription of Gli target genes. When C3H10T1/2 cells are stably transfected with the Gli-Luc plasmids containing the luciferase gene under the control of Gli response element and stimulated with Shh, the expression of luciferase is elevated. Luciferase activity is indicative of the hedgehog signaling pathway activity. Therefore, the inhibitory activity of compounds on hedgehog signaling pathway can be measured using the luciferase activity when the transfected cells are stimulated with Shh.
The day before experiment, C3H10T1/2/Gli-Luc cells in log phase of growth were seeded into 96 well plate at a density of 20000 cells per well. The cells were maintained in DMEM (Hyclone) supplemented with 10% FBS (Hyclone) and incubated at 37° C. with 5% CO2 overnight. The compounds to be examined were diluted into 7 different concentrations by series of dilutions (⅓ and 1/10), and the eighth point of concentration is the DMSO control. Those solutions were diluted 100-fold in the fresh growth medium. The cells were taken out of the incubator and the medium of cultured cells were removed. Then, each well was added in an orderly manner with 80 μL of fresh growth medium, 20 μL of medium pre-dilution of positive compound and compounds to be tested, as well as 100 μL of growth medium containing 30 nM of Shh. The cells are returned to the incubator, and incubated for 24 hours.
Measurement of luciferase activity: After taking the 96 well plate out of the incubator, the supernatants were discarded and the cells were washed twice with PBS. Thereafter, each well was dispensed with 20 μL of lysis buffer (Promega E1531), and the plate was shaken for 30 min at room temperature. Following transferring 5 μL of cell lysate into 384 well plate (Greiner 781074), adding 25 μL of luciferase reaction buffer (Promega E1501) into each well and mixing the plate, the relative light unit (RLU) was immediately captured by VarioSkan Flash.
The data were analyzed with Prism 5 software (GraphPad). The relative light unit (RLU) was plotted against the log concentration of testing compound, and the obtained plot was fitted with non-linear curve fitting equation to calculate IC50 values. The curve fitting equation is Y (RLU)=Bottom+(Top−Bottom)/(1+10^((X−Log IC50))). X is the logarithm of concentration. Y is the measure of relative light unit (RLU).
The calculated IC50 value is a measurement of the inhibitory activity of compound to Hh pathway.

IC50 [1] [nM]	IC50 [2] [nM]	IC50 [3] [nM]	SMILES
19	2.6	3.3	Cc1cc(-c2ccc(C#N)cc2)ccc1C(=O)Nc1ccc(Cl)c(-c2nc3ccccc3[nH]2)c1 [Example 6, N-(3-(1H-benzo[d]imidazol-2-yl)-4-chlorophenyl)-3-methyl-4′-cyanobiphenyl-4-carboxamide]
25	3.5	4.6	Cc1cc(-c2ccc([N+](=O)[O-])cc2)ccc1C(=O)Nc1ccc(Cl)c(-c2nc3ccccc3[nH]2)c1 [Example 7, N-(3-(1H-benzo[d]imidazol-2-yl)-4-chlorophenyl)-3-methyl-4′-nitrobiphenyl-4-carboxamide]
86	3.6	4.6	Cc1cc(-c2ccc(Cl)cc2)ccc1C(=O)Nc1ccc(Cl)c(-c2nc3ccccc3[nH]2)c1 [Example 8, N-(3-(1H-benzo[d]imidazol-2-yl)-4-chlorophenyl)-3-methyl-4′-chlorobiphenyl-4-carboxamide]
80	5.5	9.5	Cc1cc(C(=O)Nc2ccc(Cl)c(-c3nc4ccccc4[nH]3)c2)ccc1-c1ccc(C(F)(F)F)cc1 [Example 14, N-(3-(1H-benzo[d]imidazol-2-yl)-4-chlorophenyl)-2-methyl-4′-(trifluoromethyl)biphenyl-4-carboxamide]
60	3.7	8.2	O=C(Nc1ccc(Cl)c(-c2nc3ccccc3[nH]2)c1)c1ccc(-c2ccc(C(F)(F)F)cc2)cc1Cl [Example 18, N-(3-(1H-benzo[d]imidazol-2-yl)-4-chlorophenyl)-3-chloro-4′-(trifluoromethyl)biphenyl-4-carboxamide]
30	2.3	5.8	Cc1cc(-c2ccc(C(F)(F)F)cc2)ccc1C(=O)Nc1ccc(Cl)c(-c2nc3ccccc3[nH]2)c1 [Example 21, N-(3-(1H-benzo[d]imidazol-2-yl)-4-chlorophenyl)-3-methyl-4′-(trifluoromethyl)biphenyl-4-carboxamide]
124	15	16	O=C(Nc1ccc(Cl)c(-c2nc3ccccc3[nH]2)c1)c1ccc(-c2ccc(C(F)(F)F)cc2)cc1 [Example 22, N-(3-(1H-benzo[d]imidazol-2-yl)-4-chlorophenyl)-4′-(trifluoromethyl)biphenyl-4-carboxamide]
191	5.5	4	Nc1cc(-c2ccc(C(F)(F)F)cc2)ccc1C(=O)Nc1ccc(Cl)c(-c2nc3ccccc3[nH]2)c1 [Example 25, N-(3-(1H-benzo[d]imidazol-2-yl)-4-chlorophenyl)-3-amino-4′-(trifluoromethyl)biphenyl-4-carboxamide]
53	7.9	7.2	Cc1cc(N2C[C@@H](C)O[C@@H](C)C2)ccc1C(=O)Nc1ccc(Cl)c(-c2nc3ccccc3[nH]2)c1 [Example 32, N-(3-(1H-benzo[d]imidazol-2-yl)-4-chlorophenyl)-2-methyl-4-((2S,6R)-2,6-dimethylmorpholino)benzamide]
56	10	7.8	C[C@@H]1CN(c2ccc(C(=O)Nc3ccc(Cl)c(-c4nc5ccccc5[nH]4)c3)cn2)C[C@H](C)O1 [Example 35, N-(3-(1H-benzo[d]imidazol-2-yl)-4-chlorophenyl)-6-((2S,6R)-2,6-dimethylmorpholino)nicotinamide]
28	4.9	8.4	Cc1nc(N2C[C@@H](C)O[C@@H](C)C2)ccc1C(=O)Nc1ccc(Cl)c(-c2nc3ccccc3[nH]2)c1 [Example 38, N-(3-(1H-benzo[d]imidazol-2-yl)-4-chlorophenyl)-2-methyl-6-((2S,6R)-2,6-dimethylmorpholino)nicotinamide]
40	15	8.2	COc1ncc(-c2ccc(C(=O)Nc3ccc(Cl)c(-c4nc5ccccc5[nH]4)c3)c(C)c2)cn1 [Example 39, N-(3-(1H-benzo[d]imidazol-2-yl)-4-chlorophenyl)-2-methyl-4-(2-methoxypyrimidin-5-yl)benzamide]
16	8.5	12	Cc1cc(-c2cncnc2)ccc1C(=O)Nc1ccc(Cl)c(-c2nc3ccccc3[nH]2)c1 [Example 43, N-(3-(1H-benzo[d]imidazol-2-yl)-4-chlorophenyl)-2-methyl-4-(pyrimidin-5-yl)benzamide]
89	5.1	5.5	Cc1cc(-c2ccc(C(F)(F)F)cc2)ccc1C(=O)Nc1ccc(C)c(-c2nc3ccccc3[nH]2)c1 [Example 46, N-(3-(1H-benzo[d]imidazol-2-yl)-4-methylphenyl)-3-methyl-4′-(trifluoromethyl)biphenyl-4-carboxamide]
102	3.3	8.7	Cc1cc(-c2ccc(C(F)(F)F)cc2)ccc1C(=O)Nc1ccc(Cl)c(-c2nc3ccccc3n2C)c1 [Example 47, N-(3-(1-methyl-1H-benzo[d]imidazol-2-yl)-4-chlorophenyl)-3-methyl-4′-(trifluoromethyl)biphenyl-4-carboxamide]
261	2.4	7.2	Cc1cc(-c2ccc(C(F)(F)F)cc2)ccc1C(=O)Nc1ccc(Cl)c(-c2nc3cnccc3[nH]2)c1 [Example 49, N-(3-(1H-imidazo[4,5-c]pyridin-2-yl)-4-chlorophenyl)-3-methyl-4′-(trifluoromethyl)biphenyl-4-carboxamide]
125	7.9	10	Cc1cc(-c2ccc(C(F)(F)F)cc2)ccc1C(=O)Nc1ccc(Cl)c(-c2ncc(-c3ccccc3)[nH]2)c1 [Example 50, N-(3-(5-phenyl-1H-imidazol-2-yl)-4-chlorophenyl)-3-methyl-4′-(trifluoromethyl)biphenyl-4-carboxamide]
232	7.5	9.1	Cc1cc(-c2ccc(C(F)(F)F)cc2)ccc1C(=O)Nc1ccc(Cl)c(-c2ccccn2)c1 [Example 59, N-(3-(pyridin-2-yl)-4-chlorophenyl)-3-methyl-4′-(trifluoromethyl)biphenyl-4-carboxamide]
141	18	23	Cc1cc(-c2ccc(C(F)(F)F)cc2)ccc1C(=O)Nc1cncc(-c2nc3ccccc3[nH]2)c1 [Example 60, N-(5-(1H-benzo[d]imidazol-2-yl)pyridin-3-yl)-3-methyl-4′-(trifluoromethyl)biphenyl-4-carboxamide]
24	7.1	6.1	COc1ccc(-c2ccc(C(=O)Nc3ccc(Cl)c(-c4nc5ccccc5[nH]4)c3)c(C)c2)cn1 [Example 66, N-(3-(1H-benzo[d]imidazol-2-yl)-4-chlorophenyl)-2-methyl-4-(6-methoxypyridin-3-yl)benzamide]
69	4	9.9	Cc1cc(-c2ccc(C(F)(F)F)cc2)ccc1C(=O)Nc1ccc(Cl)c(-c2ncc(-c3cccs3)[nH]2)c1 [Example 68, N-(3-(5-(thiophen-2-yl)-1H-imidazol-2-yl)-4-chlorophenyl)-3-methyl-4′-(trifluoromethyl)biphenyl-4-carboxamide]
33	0.55	4.2	Cc1cc(-c2ccc(C(F)(F)F)cc2)ccc1C(=O)Nc1cnc(Cl)c(-c2nc3ccccc3[nH]2)c1 [Example 69, N-(5-(1H-benzo[d]imidazol-2-yl)-6-chloropyridin-3-yl)-3-methyl-4′-(trifluoromethyl)biphenyl-4-carboxamide]

From patent US10676468B2, “N-(3-heteroarylaryl)-4-arylarylcarboxamides and analogs as hedgehog pathway inhibitors and use thereof” (IMPACT Therapeutics, Inc., priority 2012, dated 2020)
